# Assay results as given in article PMC10307885, “A Phase 1/2 trial of SRA737 (a Chk1 inhibitor) administered orally in patients with advanced cancer” (British Journal of Cancer, 2023).
# Several values for one entry are separate records, joined by “and”; a condition that tells them apart may be missing. Identical values can stand only once.
# Key:
# [1] = tested on: patients with advanced solid tumours; experiment: Phase 1/2 dose-escalation/expansion study: safety, TEAEs (NCI CTCAE v4.03), DLT, MTD, RP2D; type: in vivo
# Description: The objectives of this first-in-human, Phase 1/2, open-label, dose-escalation study of SRA737 as a single agent were to establish the safety profile, define the maximum tolerated dose (MTD) and the recommended Phase 2 dose (RP2D) and schedule, and to evaluate preliminary efficacy in prospectively selected genetically defined patients enrolled in indication-specific expansion cohorts. Secondary objectives included defining the pharmacokinetic (PK) profile of SRA737.
# The study used an accelerated titration design in dose escalation beginning with single subject dose-level cohorts. Doubling of the SRA737 dose was permitted in the subsequent cohort if a dose level was determined to be safe by the cohort review committee consisting of the lead investigator, study investigators representing the site(s) currently enrolling patients, and representatives of the study sponsor. In the event of any SRA737-related adverse event Grade 2 or greater toxicity during Cycle 1, the cohort was to be expanded to 3 to 6 subjects. Thereafter the study followed a rolling 6 design wherein once the first subject completed the 7-day observation period following the first dose of SRA737, subsequent subjects in that cohort started treatment. […] Enrolment of expansion cohorts at the highest dose level determined to be safe and tolerable was initiated prior to the completion of dose escalation and determination of MTD or RP2D.
# A single dose of SRA737 was given at one visit on Day −7 to Day −4 (prior to the start of Cycle 1) for PK assessments. SRA737 was then administered orally on a continuous daily dosing schedule in 28-day cycles. An accelerated titration design was used with single-patient dose-escalation cohorts starting with 20 mg SRA737 administered once daily (QD) in the first cohort, with dose doubling in subsequent single-patient cohorts. If a patient had SRA737-related Grade 2 toxicity in a dose level cohort during Cycle 1, that cohort was expanded to 3 to 6 patients, and subsequent cohorts followed a rolling six design.
# Patients were assessed for DLT from the first SRA737 dose (Day −7 to Day −4) until the end of Cycle 1 (up to 35 days).
# Expansion cohorts including up to 20 patients with one of the 6 specified indication-specific tumour types, were treated at SRA737 doses selected by the cohort review committee based on all available safety and PK data; expansion doses were at or below the maximum tolerated dose (MTD) from the dose-escalation phase. Patients could continue treatment until disease progression or discontinuation from study due to unacceptable toxicity, investigator/sponsor decision, or withdrawal of consent.
# Safety assessments including adverse events, laboratory parameters, electrocardiograms (ECGs), and echocardiograms were conducted throughout treatment and until 30 days after the last study treatment or initiation of new anticancer treatment.
# The Safety Evaluable population included all patients who received at least one dose of SRA737.
# The DLT window is defined from the first dose (Day -7 to Day -4) until the end of Cycle 1 (up to 35 days).
# A DLT is defined as any highly probably or probably SRA737-related event of: […]
# [2] = Preliminary in vitro solubility studies of SRA737 citrate drug product; type: physicochemical; details: over the physiological range
# [3] = tested on: Chk1; parameters: method as in printed; details: previously shown in preclinical experiments; ref not given; cited from earlier work
# [4] = irrespective of SRA737 dose level, any grade
smiles,measurement,setting,value
"N#Cc1cnc(Nc2cc(NC[C@H]3CNCCO3)c(C(F)(F)F)cn2)cn1 [SRA737, (R)-5-((4-((morpholin-2-ylmethyl)amino)-5-(trifluoromethyl)pyridin-2-yl)amino)pyr azine-2-carbonitrile]",SRA737-related TEAE of Grade 3 or higher: Rash,[1]; SRA737 dose > 800 mg (N = 49),1 (2.0) n (%)
same,SRA737-related TEAE of Grade 3 or higher: Rash maculopapular,[1]; SRA737 dose > 800 mg (N = 49),2 (4.1) n (%)
same,SRA737-related TEAE of Grade 3 or higher: Thrombocytopenia,[1]; SRA737 dose > 800 mg (N = 49),1 (2.0) n (%)
same,SRA737-related TEAE of any grade: Anaemia,[1]; SRA737 dose > 800 mg (N = 49),11 (22.4) n (%)
same,SRA737-related TEAE of any grade: Decreased Appetite,[1]; SRA737 dose > 800 mg (N = 49),7 (14.3) n (%)
same,SRA737-related TEAE of any grade: Diarrhoea,[1]; SRA737 dose > 800 mg (N = 49),34 (69.4) n (%)
same,SRA737-related TEAE of any grade: Fatigue,[1]; SRA737 dose > 800 mg (N = 49),27 (55.1) n (%)
same,SRA737-related TEAE of any grade: Nausea,[1]; SRA737 dose > 800 mg (N = 49),32 (65.3) n (%)
same,SRA737-related TEAE of any grade: Neutropenia,[1]; SRA737 dose > 800 mg (N = 49),7 (14.3) n (%)
same,SRA737-related TEAE of any grade: Vomiting,[1]; SRA737 dose > 800 mg (N = 49),28 (57.1) n (%)
same,Any SRA737-related Grade ≥3 treatment-emergent adverse event (TEAE),[1]; SRA737 dose ≤ 800 mg (N = 58),14 (24.1) n (%)
same,"Any SRA737-related treatment-emergent adverse event (TEAE), any grade",[1]; SRA737 dose ≤ 800 mg (N = 58),51 (87.9) n (%)
same,SRA737-related TEAE of Grade 3 or higher: Aspartate aminotransferase increased,[1]; SRA737 dose ≤ 800 mg (N = 58),2 (3.4) n (%)
same,SRA737-related TEAE of Grade 3 or higher: Diarrhoea,[1]; SRA737 dose ≤ 800 mg (N = 58),1 (1.7) n (%)
same,SRA737-related TEAE of Grade 3 or higher: Dyspnoea,[1]; SRA737 dose ≤ 800 mg (N = 58),2 (3.4) n (%)
same,SRA737-related TEAE of Grade 3 or higher: Fatigue,[1]; SRA737 dose ≤ 800 mg (N = 58),0 n (%)
same,SRA737-related TEAE of Grade 3 or higher: Lymphocyte count decreased,[1]; SRA737 dose ≤ 800 mg (N = 58),3 (5.2) n (%)
same,SRA737-related TEAE of Grade 3 or higher: Neutropenia,[1]; SRA737 dose ≤ 800 mg (N = 58),4 (6.9) n (%)
same,SRA737-related TEAE of Grade 3 or higher: Rash,[1]; SRA737 dose ≤ 800 mg (N = 58),2 (3.4) n (%)
same,SRA737-related TEAE of Grade 3 or higher: Rash maculopapular,[1]; SRA737 dose ≤ 800 mg (N = 58),1 (1.7) n (%)
same,SRA737-related TEAE of Grade 3 or higher: Thrombocytopenia,[1]; SRA737 dose ≤ 800 mg (N = 58),2 (3.4) n (%)
same,SRA737-related TEAE of any grade: Anaemia,[1]; SRA737 dose ≤ 800 mg (N = 58),5 (8.6) n (%)
same,SRA737-related TEAE of any grade: Decreased Appetite,[1]; SRA737 dose ≤ 800 mg (N = 58),12 (20.7) n (%)
same,SRA737-related TEAE of any grade: Diarrhoea,[1]; SRA737 dose ≤ 800 mg (N = 58),33 (56.9) n (%)
same,SRA737-related TEAE of any grade: Fatigue,[1]; SRA737 dose ≤ 800 mg (N = 58),14 (24.1) n (%)
same,SRA737-related TEAE of any grade: Nausea,[1]; SRA737 dose ≤ 800 mg (N = 58),32 (55.2) n (%)
same,SRA737-related TEAE of any grade: Neutropenia,[1]; SRA737 dose ≤ 800 mg (N = 58),10 (17.2) n (%)
same,SRA737-related TEAE of any grade: Vomiting,[1]; SRA737 dose ≤ 800 mg (N = 58),21 (36.2) n (%)
same,Grade 3 or higher neutropenia rate,"[1]; current study, overall",8%
same,"Dose-limiting toxicity, events included",[1]; daily doses of 1000 and 1300 mg QD,"gastrointestinal events, neutropenia and thrombocytopenia"
same,patients who tolerated the dose but required anti-emetic medication and/or night-time dosing,"[1]; human, in vivo",7 patients
same,Fatal adverse events attributed to SRA737,[1]; in vivo,none
same,Fatal adverse events reported,[1]; in vivo,ten
same,TEAE attributed to SRA737: anaemia,[1]; [4],15%
same,TEAE attributed to SRA737: decreased appetite,[1]; [4],18%
same,TEAE attributed to SRA737: diarrhoea,[1]; [4],63%
same,TEAE attributed to SRA737: fatigue,[1]; [4],38%
same,TEAE attributed to SRA737: nausea,[1]; [4],60%
same,TEAE attributed to SRA737: neutropenia,[1]; [4],16%
same,TEAE attributed to SRA737: vomiting,[1]; [4],46%
same,recommended Phase 2 dose (RP2D),[1]; oral monotherapy,800 mg QD
same,maximum tolerated dose (MTD),"[1]; oral monotherapy, continuous daily dosing, 28-day cycles",1000 mg QD
same,"GI events (diarrhoea, nausea, vomiting) reported at Grade 3 or higher severity",[1]; patients treated at 800 mg QD or higher,less than 5 % of patients
same,pH-dependent solubility,[2],minimal to moderate pH-dependent solubility
same,minimally effective concentration to inhibit Chk1,[3],100 nM and 37.9 ng/mL
